# Results reported in patent US8796289B2 (AbbVie Inc., priority 2011, dated 2014).
# Target: GST-tagged-Wee1 kinase (Homo sapiens, UniProt P30291)
# Test: Wee1 time-resolved fluorescence equilibrium binding assay (displacement of Oregon Green-labeled ATP-competitive kinase probe)
# Experimental: Wee1 kinase was assayed using a time-resolved fluorescence equilibrium binding assay monitoring displacement of a rapidly reversible Oregon Green-labeled ATP-competitive kinase probe (N-(2-(2-(2-(4-(4-(5-chloro-4-(2-(1-hydroxycyclobutyl)thiazol-5-yl)-1H-pyrrolo[2,3-b]pyridin-2-yl)phenyl)piperazin-1-yl)ethoxy)ethoxy)ethyl)-2′,7′-difluoro-3′,6′-dihydroxy-3-oxo-3H-spiro[isobenzofuran-1,9′-xanthene]-5-carboxamide) by competitive Wee1 inhibitors.
# Chain of GST-tagged-Wee1 kinase (P30291 whole entry): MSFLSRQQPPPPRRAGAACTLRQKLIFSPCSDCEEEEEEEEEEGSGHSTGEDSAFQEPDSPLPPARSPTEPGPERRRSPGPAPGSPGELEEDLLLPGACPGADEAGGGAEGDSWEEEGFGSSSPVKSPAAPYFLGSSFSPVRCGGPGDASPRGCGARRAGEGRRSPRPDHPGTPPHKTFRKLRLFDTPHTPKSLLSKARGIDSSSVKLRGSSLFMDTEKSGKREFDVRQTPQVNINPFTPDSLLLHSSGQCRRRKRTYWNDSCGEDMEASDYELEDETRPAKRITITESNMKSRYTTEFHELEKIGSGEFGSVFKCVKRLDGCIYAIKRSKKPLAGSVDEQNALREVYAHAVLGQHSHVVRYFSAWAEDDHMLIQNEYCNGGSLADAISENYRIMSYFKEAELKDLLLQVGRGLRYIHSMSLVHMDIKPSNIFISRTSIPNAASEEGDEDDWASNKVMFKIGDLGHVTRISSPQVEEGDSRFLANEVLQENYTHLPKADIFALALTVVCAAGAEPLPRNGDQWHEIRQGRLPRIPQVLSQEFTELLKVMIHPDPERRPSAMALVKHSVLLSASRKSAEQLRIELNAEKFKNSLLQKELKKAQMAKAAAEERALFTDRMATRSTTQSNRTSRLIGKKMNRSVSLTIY
row,Structure (SMILES),Ki [nM]
1,"CN1CCN(c2ccc(Nc3ncc4c(=O)n(-c5ccccc5Cl)nc(-c5cccc(Br)c5)c4n3)cc2)CC1 [Example 65, 8-(3-bromophenyl)-6-(2-chlorophenyl)-2-{[4-(4-methylpiperazin-1-yl)phenyl]amino}pyrimido[4,5-d]pyridazin-5(6H)-one]",1
2,"Cc1ccccc1-n1nc(-c2cccc(Br)c2)c2nc(Nc3ccc(N4CCN(C)CC4)cc3)ncc2c1=O [Example 66, 8-(3-bromophenyl)-6-(2-methylphenyl)-2-{[4-(4-methylpiperazin-1-yl)phenyl]amino}pyrimido[4,5-d]pyridazin-5(6H)-one]",4
3,"C=CCn1nc(-c2cccc(Br)c2)c2nc(Nc3ccc(N4CCN(C)CC4)cc3)ncc2c1=O [Example 68, 6-allyl-8-(3-bromophenyl)-2-{[4-(4-methylpiperazin-1-yl)phenyl]amino}pyrimido[4,5-d]pyridazin-5(6H)-one]",14
4,"CN1CCN(c2ccc(Nc3ncc4c(=O)n(-c5c(Cl)cccc5Cl)nc(-c5ccco5)c4n3)cc2)CC1 [Example 69, 6-(2,6-dichlorophenyl)-8-(2-furyl)-2-{[4-(4-methylpiperazin-1-yl)phenyl]amino}pyrimido[4,5-d]pyridazin-5(6H)-one]",0.06
5,"CN1CCN(c2ccc(Nc3ncc4c(=O)n(-c5c(Cl)cccc5Cl)nc(-c5cccs5)c4n3)cc2)CC1 [Example 70, 6-(2,6-dichlorophenyl)-2-{[4-(4-methylpiperazin-1-yl)phenyl]amino}-8-(2-thienyl)pyrimido[4,5-d]pyridazin-5(6H)-one]",0.1
6,"Cc1ccccc1-c1nn(-c2c(Cl)cccc2Cl)c(=O)c2cnc(Nc3ccc(N4CCN(C)CC4)cc3)nc12 [Example 71, 6-(2,6-dichlorophenyl)-8-(2-methylphenyl)-2-{[4-(4-methylpiperazin-1-yl)phenyl]amino}pyrimido[4,5-d]pyridazin-5(6H)-one]",0.2
7,"CN1CCN(c2ccc(Nc3ncc4c(=O)n(-c5c(Cl)cccc5Cl)nc(-c5cccc(Br)c5)c4n3)cc2)CC1 [Example 72, 8-(3-bromophenyl)-6-(2,6-dichlorophenyl)-2-{[4-(4-methylpiperazin-1-yl)phenyl]amino}pyrimido[4,5-d]pyridazin-5(6H)-one]",0.5
8,"CN1CCN(c2ccc(Nc3ncc4c(=O)n(-c5c(Cl)cccc5Cl)nc(C5CCCC5)c4n3)cc2)CC1 [Example 74, 8-cyclopentyl-6-(2,6-dichlorophenyl)-2-{[4-(4-methylpiperazin-1-yl)phenyl]amino}pyrimido[4,5-d]pyridazin-5(6H)-one]",1
9,"CN1CCN(c2ccc(Nc3ncc4c(=O)n(-c5c(Cl)cccc5Cl)nc(-c5cccc(NNc6c(Cl)cccc6Cl)n5)c4n3)cc2)CC1 [Example 76, 6-(2,6-dichlorophenyl)-8-{6-[2-(2,6-dichlorophenyl)hydrazino]pyridin-2-yl}-2-{[4-(4-methylpiperazin-1-yl)phenyl]amino}pyrimido[4,5-d]pyridazin-5(6H)-one]",4
10,"CN1CCN(c2ccc(Nc3ncc4c(=O)n(-c5ccccc5Cl)nc(-c5cccnc5Cl)c4n3)cc2)CC1 [Example 80, 6-(2-chlorophenyl)-8-(2-chloropyridin-3-yl)-2-{[4-(4-methylpiperazin-1-yl)phenyl]amino}pyrimido[4,5-d]pyridazin-5(6H)-one]",27
11,"CN1CCN(c2ccc(Nc3ncc4c(=O)n(-c5c(Cl)cccc5Cl)nc(-c5cccnc5Cl)c4n3)cc2)CC1 [Example 81, 8-(2-chloropyridin-3-yl)-6-(2,6-dichlorophenyl)-2-{[4-(4-methylpiperazin-1-yl)phenyl]amino}pyrimido[4,5-d]pyridazin-5(6H)-one]",4
12,"CN1CCN(c2ccc(Nc3ncc4c(=O)n(-c5ccccc5Cl)nc(-c5cccc(F)c5)c4n3)cc2)CC1 [Example 83, 6-(2-chlorophenyl)-8-(3-fluorophenyl)-2-{[4-(4-methylpiperazin-1-yl)phenyl]amino}pyrimido[4,5-d]pyridazin-5(6H)-one]",0.2
13,"CN1CCN(c2ccc(Nc3ncc4c(=O)n(-c5c(Cl)cccc5Cl)nc(-c5cccc(F)c5)c4n3)cc2)CC1 [Example 84, 6-(2,6-dichlorophenyl)-8-(3-fluorophenyl)-2-{[4-(4-methylpiperazin-1-yl)phenyl]amino}pyrimido[4,5-d]pyridazin-5(6H)-one]",0.1
14,"CN1CCN(c2ccc(Nc3ncc4c(=O)n(-c5c(Cl)cccc5Cl)nc(-c5cccc(O)n5)c4n3)cc2)CC1 [Example 88, 6-(2,6-dichlorophenyl)-8-(6-hydroxypyridin-2-yl)-2-{[4-(4-methylpiperazin-1-yl)phenyl]amino}pyrimido[4,5-d]pyridazin-5(6H)-one]",5
15,"CN1CCN(c2ccc(Nc3ncc4c(=O)n(-c5c(Cl)cccc5Cl)nc(-c5cccc(C#N)c5)c4n3)cc2)CC1 [Example 89, 3-[6-(2,6-dichlorophenyl)-2-{[4-(4-methylpiperazin-1-yl)phenyl]amino}-5-oxo-5,6-dihydropyrimido[4,5-d]pyridazin-8-yl]benzonitrile]",0.07
16,"CN1CCN(c2ccc(Nc3ncc4c(=O)n(-c5c(Cl)cccc5Cl)nc(-c5cccc(N(C)C)c5)c4n3)cc2)CC1 [Example 90, 6-(2,6-dichlorophenyl)-8-[3-(dimethylamino)phenyl]-2-{[4-(4-methylpiperazin-1-yl)phenyl]amino}pyrimido[4,5-d]pyridazin-5(6H)-one]",0.2
17,"CN1CCN(c2ccc(Nc3ncc4c(=O)n(-c5c(Cl)cccc5Cl)nc(-c5cccc(-c6c[nH]cn6)c5)c4n3)cc2)CC1 [Example 91, 6-(2,6-dichlorophenyl)-8-[3-(1H-imidazol-4-yl)phenyl]-2-{[4-(4-methylpiperazin-1-yl)phenyl]amino}pyrimido[4,5-d]pyridazin-5(6H)-one]",0.3
18,"CN1CCN(c2ccc(Nc3ncc4c(=O)n(-c5c(Cl)cccc5Cl)nc(-c5cccc(-c6ccc[nH]6)c5)c4n3)cc2)CC1 [Example 92, 6-(2,6-dichlorophenyl)-2-{[4-(4-methylpiperazin-1-yl)phenyl]amino}-8-[3-(1H-pyrrol-2-yl)phenyl]pyrimido[4,5-d]pyridazin-5(6H)-one]",8
19,"CN1CCN(c2ccc(Nc3ncc4c(=O)n(-c5c(Cl)cccc5Cl)nc(-c5cccc(N6CCCCC6=O)c5)c4n3)cc2)CC1 [Example 93, 6-(2,6-dichlorophenyl)-2-{[4-(4-methylpiperazin-1-yl)phenyl]amino}-8-[3-(2-oxopiperidin-1-yl)phenyl]pyrimido[4,5-d]pyridazin-5(6H)-one]",0.1
20,"CN1CCN(c2ccc(Nc3ncc4c(=O)n(-c5ccccc5Cl)nc(-c5ccsc5)c4n3)cc2)CC1 [Example 96, 6-(2-chlorophenyl)-2-{[4-(4-methylpiperazin-1-yl)phenyl]amino}-8-(3-thienyl)pyrimido[4,5-d]pyridazin-5(6H)-one]",0.2
21,"CN1CCN(c2ccc(Nc3ncc4c(=O)n(-c5c(Cl)cccc5Cl)nc(-c5ccsc5)c4n3)cc2)CC1 [Example 97, 6-(2,6-dichlorophenyl)-2-{[4-(4-methylpiperazin-1-yl)phenyl]amino}-8-(3-thienyl)pyrimido[4,5-d]pyridazin-5(6H)-one]",0.06

# More lines, now with the values ahead:
row,Ki [nM],Structure (SMILES)
1,14,"CN1CCN(c2ccc(Nc3ncc4c(=O)n(-c5ccccc5)nc(-c5cccc(Br)c5)c4n3)cc2)CC1 [Example 67, 8-(3-bromophenyl)-2-{[4-(4-methylpiperazin-1-yl)phenyl]amino}-6-phenylpyrimido[4,5-d]pyridazin-5(6H)-one]"
2,3,"CN1CCN(c2ccc(Nc3ncc4c(=O)n(-c5ccccc5)nc(-c5cccc(Cl)n5)c4n3)cc2)CC1 [Example 73, 8-(6-chloropyridin-2-yl)-2-{[4-(4-methylpiperazin-1-yl)phenyl]amino}-6-phenylpyrimido[4,5-d]pyridazin-5(6H)-one]"
3,48,"CN1CCN(c2ccc(Nc3ncc4c(=O)n(-c5ccccc5)nc(-c5cccnc5Cl)c4n3)cc2)CC1 [Example 78, 8-(2-chloropyridin-3-yl)-2-{[4-(4-methylpiperazin-1-yl)phenyl]amino}-6-phenylpyrimido[4,5-d]pyridazin-5(6H)-one]"
4,710,"CCOc1ncccc1-c1nn(-c2ccccc2)c(=O)c2cnc(Nc3ccc(N4CCN(C)CC4)cc3)nc12 [Example 79, 8-(2-ethoxypyridin-3-yl)-2-{[4-(4-methylpiperazin-1-yl)phenyl]amino}-6-phenylpyrimido[4,5-d]pyridazin-5(6H)-one]"
5,9,"CN1CCN(c2ccc(Nc3ncc4c(=O)n(-c5ccccc5)nc(-c5cccc(F)c5)c4n3)cc2)CC1 [Example 82, 8-(3-fluorophenyl)-2-{[4-(4-methylpiperazin-1-yl)phenyl]amino}-6-phenylpyrimido[4,5-d]pyridazin-5(6H)-one]"
6,24.7,"CN1CCN(c2ccc(Nc3ncc4c(=O)n(-c5ccccc5)nc(-c5cnn(C)c5)c4n3)cc2)CC1 [Example 85, 2-{[4-(4-methylpiperazin-1-yl)phenyl]amino}-8-(1-methyl-1H-pyrazol-4-yl)-6-phenylpyrimido[4,5-d]pyridazin-5(6H)-one]"
7,0.1,"CN1CCN(c2ccc(Nc3ncc4c(=O)n(-c5c(Cl)cccc5Cl)nc(-c5cnn(C)c5)c4n3)cc2)CC1 [Example 87, 6-(2,6-dichlorophenyl)-2-{[4-(4-methylpiperazin-1-yl)phenyl]amino}-8-(1-methyl-1H-pyrazol-4-yl)pyrimido[4,5-d]pyridazin-5(6H)-one]"
8,0.5,"CN1CCN(c2ccc(Nc3ncc4c(=O)n(-c5ccccc5Cl)nc(-c5ccoc5)c4n3)cc2)CC1 [Example 94, 6-(2-chlorophenyl)-8-(3-furyl)-2-{[4-(4-methylpiperazin-1-yl)phenyl]amino}pyrimido[4,5-d]pyridazin-5(6H)-one]"
9,0.5,"CN1CCN(c2ccc(Nc3ncc4c(=O)n(-c5ccccc5Cl)nc(-c5cccnc5)c4n3)cc2)CC1 [Example 98, 6-(2-chlorophenyl)-2-{[4-(4-methylpiperazin-1-yl)phenyl]amino}-8-(pyridin-3-yl)pyrimido[4,5-d]pyridazin-5(6H)-one]"
